According to patent publication US6875891B2, “Process for preparing highly water soluble double salts of hydroxycitric acid particularly alkali and alkaline earth metal double salts” (Laila Impex, priority 2003, dated 2005):

Experiments:
[1] = background statement on known salts; cited from earlier work
[2] = background statement; cited from earlier work
[3] = equilibration between free acid form and lactone form when dissolved in water; assay type: physicochemical

**Q.** For `O=C([O-])C[C@@](O)(C(=O)[O-])[C@H](O)C(=O)[O-].O=C([O-])C[C@@](O)(C(=O)[O-])[C@H](O)C(=O)[O-].[Ca+2].[Ca+2].[Ca+2]` [calcium salt, calcium salt of hydroxycitric acid], which solubility in water [1] is on record?
**A.** The solubility in water was “poorly soluble in water”.

**Q.** With `O=C([O-])C[C@@](O)(C(=O)[O-])[C@H](O)C(=O)[O-].[K+].[K+].[K+]` [tripotassium salt] as the compound, how does the hygroscopicity [2] read?
**A.** Its hygroscopicity is “highly hygroscopic”.

**Q.** With “calcium/potassium double salt of hydroxycitric acid [Ca/K double salt]” as the compound, how does the “equilibration between free form and lactone form of hydroxycitric acid” value [3] read?
**A.** Its value is “does not equilibrate between the free form and the lactone form”.
